From patent US9113629B2, “4-amino-6-(4-substituted-phenyl)-picolinates and 6-amino-2-(4-substituted-phenyl)-pyrimidine-4-carboxylates and their use as herbicides” (DOW AGROSCIENCES LLC, priority 2013, dated 2015)
Like-named read-outs stand apart in the source and are kept apart here.

Assays:
[1] = test system: Key Broadleaf Weed and Crop Species; assay: Post-emergent Test II herbicidal activity (Table 5); format: in vivo; details: post-emergence, 336 h, 14 days after application; for pest or weed control at 70 g/ha: application rate 70 g ai/ha; for pest or weed control at 140 g/ha: application rate 140 g ai/ha
In short: (§1)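 Scoring: visual, 0–100% injury at 14 d versus untreated. Treatment: overhead track spray, 187 L/ha, onto plants at the first–second true leaf stage. Growth: greenhouse, ~15 h light, 23–29 °C day, 22–28 °C night.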

[2] = test system: Key Grass and Sedge Weeds as well as Grass Crops; assay: Post-emergent Test II herbicidal activity (Table 6); format: in vivo; details: post-emergence, 336 h; for pest or weed control at 70 g/ha: 70 g ai/ha; for pest or weed control at 140 g/ha: 140 g ai/ha
In short: as §1

[3] = ABUTH: velvetleaf (Abutilon theophrasti), read-out: Visual Growth Reduction (%) 14 Days After Application, ABUTH
[4] = AMARE: redroot pigweed (Amaranthus retroflexus), read-out: Visual Growth Reduction (%) 14 Days After Application, AMARE
[5] = BRSNN: oilseed-rape, canola (Brassica napus), read-out: Visual Growth Reduction (%) 14 Days After Application, BRSNN
[6] = CHEAL: lambsquarters (Chenopodium album), read-out: Visual Growth Reduction (%) 14 Days After Application, CHEAL
[7] = EPHHL: wild poinsettia (Euphorbia heterophylla), read-out: Visual Growth Reduction (%) 14 Days After Application, EPHHL
[8] = HELAN: sunflower (Helianthus annuus), read-out: Visual Growth Reduction (%) 14 Days After Application, HELAN
[9] = VIOTR: wild pansy (Viola tricolor), read-out: Visual Growth Reduction (%) 14 Days After Application, VIOTR
[10] = CYPES: yellow nutsedge (Cyperus esculentus), read-out: Visual Growth Reduction (%) 14 Days After Application, CYPES
[11] = DIGSA: crabgrass (Digitaria sanguinalis), read-out: Visual Growth Reduction (%) 14 Days After Application, DIGSA
[12] = ECHCG: barnyardgrass (Echinochloa crus-galli), read-out: Visual Growth Reduction (%) 14 Days After Application, ECHCG
[13] = ORYSA: rice (Oryza sativa), crop, read-out: Visual Growth Reduction (%) 14 Days After Application, ORYSA
[14] = SETFA: giant foxtail (Setaria faberi), read-out: Visual Growth Reduction (%) 14 Days After Application, SETFA
[15] = SORVU: grain sorghum (Sorghum vulgare), read-out: Visual Growth Reduction (%) 14 Days After Application, SORVU
[16] = TRZSS (wheat, Triticum aestivum), crop, read-out: Visual Growth Reduction (%) 14 Days After Application, TRZSS
[17] = ZEAMX: maize, corn (Zea mays), crop, read-out: Visual Growth Reduction (%) 14 Days After Application, ZEAMX

Question: With `C#Cc1ccc(-c2nc(C(=O)OC)c(Cl)c(N)c2F)c(F)c1F` [Compound 22] as the compound, how does the pest or weed control at 70 g/ha [1, 3] read?
Answer: 0 to 29%

Question: What about the pest or weed control at 140 g/ha [1, 3] of the same compound?
Answer: 0 to 29%

Question: And the pest or weed control at 70 g/ha [1, 4]?
Answer: 0 to 29%

Question: And the pest or weed control at 140 g/ha [1, 4]?
Answer: 0 to 29%

Question: What about the pest or weed control at 70 g/ha [1, 5] of the same compound?
Answer: 0 to 29%

Question: What about the pest or weed control at 140 g/ha [1, 5] of the same compound?
Answer: 60 to 74%

Question: And the pest or weed control at 70 g/ha [1, 6]?
Answer: 45 to 59%

Question: What about the pest or weed control at 140 g/ha [1, 6] of the same compound?
Answer: 75 to 84%

Question: What about the pest or weed control at 70 g/ha [1, 7] of the same compound?
Answer: 0 to 29%

Question: What about the pest or weed control at 140 g/ha [1, 7] of the same compound?
Answer: 95 to 100%

Question: And the pest or weed control at 70 g/ha [1, 8]?
Answer: 45 to 59%

Question: And the pest or weed control at 140 g/ha [1, 8]?
Answer: 75 to 84%

Question: What about the pest or weed control at 70 g/ha [1, 9] of the same compound?
Answer: 0 to 29%

Question: And the pest or weed control at 140 g/ha [1, 9]?
Answer: 0 to 29%

Question: What about the melting point of the same compound?
Answer: 190 to 192 °C

Question: What about the pest or weed control at 70 g/ha [2, 10] of the same compound?
Answer: 0 to 29%

Question: And the pest or weed control at 140 g/ha [2, 10]?
Answer: 0 to 29%

Question: What about the pest or weed control at 70 g/ha [2, 11] of the same compound?
Answer: 0 to 29%

Question: And the pest or weed control at 140 g/ha [2, 11]?
Answer: 0 to 29%

Question: What about the pest or weed control at 70 g/ha [2, 12] of the same compound?
Answer: 0 to 29%

Question: What about the pest or weed control at 140 g/ha [2, 12] of the same compound?
Answer: 45 to 59%

Question: What about the pest or weed control at 70 g/ha [2, 13] of the same compound?
Answer: 0 to 29%

Question: And the pest or weed control at 140 g/ha [2, 13]?
Answer: 0 to 29%

Question: And the pest or weed control at 70 g/ha [2, 14]?
Answer: 0 to 29%

Question: And the pest or weed control at 140 g/ha [2, 14]?
Answer: 0 to 29%

Question: And the pest or weed control at 70 g/ha [2, 15]?
Answer: 0 to 29%

Question: What about the pest or weed control at 140 g/ha [2, 15] of the same compound?
Answer: 0 to 29%

Question: What about the pest or weed control at 70 g/ha [2, 16] of the same compound?
Answer: 0 to 29%

Question: What about the pest or weed control at 140 g/ha [2, 16] of the same compound?
Answer: 0 to 29%

Question: What about the pest or weed control at 70 g/ha [2, 17] of the same compound?
Answer: 0 to 29%

Question: And the pest or weed control at 140 g/ha [2, 17]?
Answer: 45 to 59%

Question: Which results are given for `COC(=O)c1nc(-c2ccc(I)c(F)c2F)nc(N)c1OC` [Compound 24, methyl 6-amino-2-(2,3-difluoro-4-iodophenyl)-5-methoxypyrimidine-4-carboxylate]?
Answer: pest or weed control at 70 g/ha [1, 3]: 95 to 100%; pest or weed control at 140 g/ha [1, 3]: 95 to 100%; pest or weed control at 70 g/ha [1, 4]: 75 to 84%; pest or weed control at 140 g/ha [1, 4]: 85 to 94%; pest or weed control at 70 g/ha [1, 5]: 95 to 100%; pest or weed control at 140 g/ha [1, 5]: 95 to 100%; pest or weed control at 70 g/ha [1, 6]: 95 to 100%; pest or weed control at 140 g/ha [1, 6]: 95 to 100%; pest or weed control at 70 g/ha [1, 7]: 95 to 100%; pest or weed control at 140 g/ha [1, 7]: 95 to 100%; pest or weed control at 70 g/ha [1, 8]: 85 to 94%; pest or weed control at 140 g/ha [1, 8]: 95 to 100%; pest or weed control at 70 g/ha [1, 9]: 45 to 59%; pest or weed control at 140 g/ha [1, 9]: 95 to 100%; melting point: 169 to 170 °C; pest or weed control at 70 g/ha [2, 10]: 95 to 100%; pest or weed control at 140 g/ha [2, 10]: 95 to 100%; pest or weed control at 70 g/ha [2, 11]: 45 to 59%; pest or weed control at 140 g/ha [2, 11]: 60 to 74%; pest or weed control at 70 g/ha [2, 12]: 95 to 100%; pest or weed control at 140 g/ha [2, 12]: 95 to 100%; pest or weed control at 70 g/ha [2, 13]: 0 to 29%; pest or weed control at 140 g/ha [2, 13]: 0 to 29%; pest or weed control at 70 g/ha [2, 14]: 60 to 74%; pest or weed control at 140 g/ha [2, 14]: 85 to 94%; pest or weed control at 70 g/ha [2, 15]: 85 to 94%; pest or weed control at 140 g/ha [2, 15]: 85 to 94%; pest or weed control at 70 g/ha [2, 16]: 0 to 29%; pest or weed control at 140 g/ha [2, 16]: 30 to 44%; pest or weed control at 70 g/ha [2, 17]: 95 to 100%; pest or weed control at 140 g/ha [2, 17]: 95 to 100%
